# Data taken from the RepoRT retention time repository (doi:10.1016/j.chroma.2015.11.014).
# Experiment: RP, Agilent ZORBAX Eclipse Plus C18, 150 × 2.1 mm, 3.5 µm, 40 °C, 0.3 mL/min, estimated dead time 1.1 min; A: water + 0.1% formic acid; B: acetonitrile + 0.1% formic acid; gradient (min/%B) 0/2 1/2 2/20 16.5/98 22/98
# Conditions: stereoisomer not certain
row,SMILES,LC retention time
1,CCCCCCCCC=CCCCCCCCC[N+](C)(C)C,13.7 min
2,O=P(O)(O)c1ccccc1,3.09 min
3,CC(C)(C(=O)O)c1ccc(C(O)CCCN2CCC(C(O)(c3ccccc3)c3ccccc3)CC2)cc1 (stereo not drawn),8.7 min
4,O=c1c2ccccc2[nH]c2ccccc12,8.5 min
5,OCC[P+](c1ccccc1)(c1ccccc1)c1ccccc1,7.1 min
6,CC(O)C(=O)N(C)c1ccccc1 (stereo not drawn),6.76 min
7,COC(=O)c1ccc(CNS(C)(=O)=O)cc1S(=O)(=O)NC(=O)Nc1nc(OC)cc(OC)n1,10 min
8,COC12C(COC(N)=O)C3=C(C(=O)C(C)=C(N)C3=O)N1CC1NC12 (stereo not drawn),5.59 min
9,COc1ccc(CCN(C)CCCC(C#N)(c2ccc(OC)c(OC)c2)C(C)C)cc1OC (stereo not drawn),8.54 min
10,CC1(C)CCCC(C)(C)N1O,10.4 min
11,CCOC(=O)CC(SP(=S)(OC)OC)C(=O)OCC (stereo not drawn),12.9 min
12,COC(=O)C(=Cc1ccc(OC)cc1)C(=O)OC,11 min
13,COCCOC(=O)Nc1ccc(C)c(NC(=O)OCCOC)c1,8.32 min
14,CN1CC(=O)N2C(Cc3c([nH]c4ccccc34)C2c2ccc3c(c2)OCO3)C1=O (stereo not drawn),9.8 min
15,Oc1ccc(Oc2ccccc2)cc1,11.1 min
16,O=C(CO)Nc1ccccc1,5.9 min
17,Cn1c(=O)[nH]c2ncn(C)c2c1=O,5.06 min
18,O=S(=O)(O)c1ccc2nc(-c3ccccc3)[nH]c2c1,5.04 min
19,COc1cc(C(=O)O)cc(OC)c1OC,7.63 min
20,CCCCCCCCCCCCCC(=O)OCC(O)COP(=O)([O-])OCC[N+](C)(C)C (stereo not drawn),12.7 min
21,CN1C(C)(C)CC(OC(=O)CCCCCCCCC(=O)OC2CC(C)(C)N(C)C(C)(C)C2)CC1(C)C,6.48 min
22,Cc1cc(C2CCCCC2)n(O)c(=O)c1,4.49 min
23,Nc1nc2c(ncn2CCC(CO)CO)c(=O)[nH]1,2.6 min
24,N#CSCSc1nc2ccccc2s1,12.4 min

row,SMILES,LC retention time
1,CNC(=O)N(C)c1nc2ccccc2s1,9.78 min
2,C[P+](c1ccccc1)(c1ccccc1)c1ccccc1,7.19 min
3,CCCC1CC(C(=O)NC(C(C)O)C2OC(SC)C(O)C(O)C2O)N(C)C1 (stereo not drawn),4.88 min
4,CCNc1nc(NC(C)C)nc(SC)n1,8.65 min
5,O=C(c1ccccc1)c1ccc(O)c(O)c1O,9.4 min
6,c1ccc(Nc2ccc(Nc3ccccc3)cc2)cc1,14.5 min
7,CCCCCCCCc1ccc(CCC(N)(CO)CO)cc1,10.2 min
8,CCCCCCCCOS(=O)(=O)O,9.59 min
9,COc1ccc(O)cc1,6.96 min
10,C[N+](C)([O-])CCOC(c1ccccc1)c1ccccc1,8.07 min
11,CC1(C)NC(=O)NC1=O,3.47 min
12,COCC(O)c1ccc(OCC(O)CNC(C)C)cc1 (stereo not drawn),5.06 min
13,Nc1ccc(S(=O)(=O)Nc2ncccn2)cc1,5.24 min
14,O=c1c(O)c(-c2ccc(O)c(O)c2)oc2cc(O)cc(O)c12,8.07 min
15,CC(=O)Nc1ccc(O)c(O)c1,4.47 min
16,CCCC1OC2CC3C4CCC5=CC(=O)C=CC5(C)C4C(O)CC3(C)C2(C(=O)CO)O1 (stereo not drawn),11 min
17,Nc1nc(NC2CC2)c2ncn(C3C=CC(C(=O)O)C3)c2n1 (stereo not drawn),5.19 min
18,Oc1ccc(O)cc1,3.67 min
19,CC(C)(C)NCC(O)COc1nsnc1N1CCOCC1 (stereo not drawn),5.51 min
20,CCOC(=O)c1cncn1C(C)c1ccccc1 (stereo not drawn),8.83 min
21,Cn1c(N)nc2nc[nH]c2c1=O,2.34 min
22,CC12CCC(=O)C=C1CCC1C2C(O)CC2(C)C1CCC2(O)C(=O)CO (stereo not drawn),8.32 min
23,O=C(NO)c1ccccc1,4.89 min
24,CCCCCCCCCCC(C(=O)OCC)[N+](C)(C)Cc1ccccc1 (stereo not drawn),11.7 min

row,SMILES,LC retention time
1,CC(C)NCC(O)COc1ccc(CC(N)=O)cc1 (stereo not drawn),4.62 min
2,CCN(C)C(=O)Oc1cccc(C(C)N(C)C)c1 (stereo not drawn),6.08 min
3,CC12CCC(=O)C=C1CCC1C2CCC2(C)C(O)CCC12 (stereo not drawn),11 min
4,CC12CCC3c4ccc(O)cc4CCC3C1CC(O)C2=O (stereo not drawn),8.67 min
5,C=C1CC23CCC4C(C)(C(=O)OC5OC(CO)C(O)C(O)C5O)CCCC4(C)C2CCC1(OC1OC(CO)C(O)C(O)C1OC1OC(CO)C(O)C(O)C1O)C3 (stereo not drawn),8.07 min
6,CCN1CCN(C(=O)NC(C(=O)NC2C(=O)N3C(C(=O)O)=C(CSc4nnnn4C)CSC23)c2ccc(O)cc2)C(=O)C1=O (stereo not drawn),6.86 min
7,CCc1cccc(C)c1N(C(=O)CS(=O)(=O)O)C(C)COC (stereo not drawn),8.25 min
8,O=C(O)c1ccccc1,7.56 min
9,COc1ccc2c3c1OC1C(OC(C)=O)C=CC4C(C2)N(C)CCC341 (stereo not drawn),6.21 min
10,c1ccc2n[nH]nc2c1,5.88 min
11,Nc1nc2c(ncn2COC(CO)CO)c(=O)[nH]1,2.23 min
12,CC(C)CC[P+](c1ccccc1)(c1ccccc1)c1ccccc1,9.31 min
13,Nc1nc(=S)c2[nH]cnc2[nH]1,2.69 min
14,CCCC[N+](CCCC)(CCCC)CCCC,8.91 min
15,CCOC(=O)c1ccc(O)cc1,8.83 min
16,COc1cc(N)nc(OC)n1,4.66 min
17,CC(=O)C1(O)CCC2C3CCC4=CC(=O)CCC4(C)C3CCC21C (stereo not drawn),11.8 min
18,CCCCCCCCCCC(C(=O)c1ccc(OC)cc1)[N+](C)(C)C (stereo not drawn),11.3 min
19,[O-]N(O)c1ccc(C[P+](c2ccccc2)(c2ccccc2)c2ccccc2)cc1,8.52 min
20,CC(=O)Nc1cc(N)cc(C(=O)O)c1,4.46 min
21,CCOC(=O)C[P+](c1ccccc1)(c1ccccc1)c1ccccc1,8 min
22,CC12CCC3c4ccc(O)cc4CCC3C1CCC2=O (stereo not drawn),11.2 min
23,c1ccc(COCCC[P+](c2ccccc2)(c2ccccc2)c2ccccc2)cc1,9.73 min
24,CCN(CC)C(=O)Nc1ccc(OCC(O)CNC(C)(C)C)c(C(C)=O)c1 (stereo not drawn),6.53 min

row,SMILES,LC retention time
1,CCOC(=O)c1cnc(N)nc1N,4.61 min
2,CN(C)CCC=C1c2ccccc2COc2ccccc21,7.45 min
3,CCN(CC)C(=O)c1cccc(CO)c1,6.97 min
4,CNCC(c1ccc(O)cc1)C1(O)CCCCC1 (stereo not drawn),5.66 min
5,COc1ccc(C(=O)c2ccccc2)c(O)c1,13.5 min
6,CCCCCCCCCC[N+](C)(C)CCCCCCCC,12.4 min
7,CN(C)c1ccc(C(c2ccccc2)c2ccc(N(C)C)cc2)cc1,9.97 min
8,CC(=O)OCC[N+](C)(C)C,2.06 min
9,NC(=O)N1c2ccccc2C=Cc2ccc(O)cc21,7.92 min
10,COc1ccc2nc(SCc3ncc(C(=O)O)c(OC)c3C)[nH]c2c1,5.75 min
11,CN(C)CCC=C1c2ccccc2CCc2ccccc21,8.71 min
12,CCC1(c2ccccc2)C(=O)NCNC1=O,6.35 min
13,COCC(C)N(C(=O)CS(=O)(=O)O)c1c(C)csc1C (stereo not drawn),7.04 min
14,N=C(N)c1ccc(OCCCCCCOc2ccc(C(=N)N)cc2)cc1,5.92 min
15,OCCN1CCN(CCCN2c3ccccc3C=Cc3ccccc32)CC1,7.24 min
16,CC12CCC3c4ccc(OCc5ccccc5)cc4CCC3C1CC(O)C2O (stereo not drawn),13.3 min
17,N#CC(C(=O)O)=C(c1ccccc1)c1ccccc1,13.7 min
18,CC12CCC3c4cc(O)c(O)cc4CCC3C1CCC2=O (stereo not drawn),9.98 min
19,c1ccc2[nH]c(-c3cscn3)nc2c1,5.2 min
20,CCc1cccc(C)c1N(C(=O)C(=O)O)C(C)COC (stereo not drawn),9.91 min
21,O=C(O)CCCCC(=O)O,5.22 min
22,OCc1coc(-c2ccccc2)n1,7.56 min
23,COc1ccc2c(c1)CCC1C2CCC2(C)C(=O)CCC12 (stereo not drawn),10.5 min
24,CC(NC(CCc1ccccc1)C(=O)O)C(=O)C1CCCN1C(=O)O (stereo not drawn),5.84 min

row,SMILES,LC retention time
1,O=C(O)c1cc(N=Nc2ccc(S(=O)(=O)Nc3ccccn3)cc2)ccc1O,9.22 min
2,O=C(O)c1cccc2c(=O)c3ccccc3[nH]c12,8.82 min
3,c1ccc(-c2nc3ccccc3[nH]2)cc1,5.9 min
4,O=C(C1CCCCC1)N1CC(=O)N2CCc3ccccc3C2C1 (stereo not drawn),10.8 min
5,CCCCCCC[N+](CCCCCCC)(CCCCCCC)CCCCCCC,14.7 min
6,Nc1ccn(C2CSC(CO)O2)c(=O)n1 (stereo not drawn),3.1 min
7,CC(=O)Nc1cccc(O)c1,5.68 min
8,C#CC1(O)CCC2C3CCC4=CC(=O)CCC4C3CCC21CC (stereo not drawn),12.1 min
9,O=C(C[P+](c1ccccc1)(c1ccccc1)c1ccccc1)OCc1ccccc1,9.2 min
10,CC[N+](CC)(CC)CC,2.28 min
11,Cc1ccc(N)cc1N,2.14 min
12,O=C(Nc1ccccc1)Nc1ccccc1,10.8 min
13,CCNCC(=O)Nc1c(C)cccc1C,5.35 min
14,CCCSc1ccc2nc(NC(=O)OC)[nH]c2c1,8.55 min
15,O=C(NC1CCCCC1)N(Cc1ccccc1)Cc1ccccc1,14.1 min
16,Cn1cnc2c(=O)[nH]c(=O)[nH]c21,2.38 min
17,CC1(C)CC(O)CC(C)(C)N1CCO,2.16 min
18,CCCC[N+](CCCC)(CCCC)Cc1ccccc1,9.13 min
19,CCCC[P+](CCCC)(CCCC)CCCC,9.65 min
20,O=P(O)(O)Cc1ccccc1,5.04 min
21,CNC(=O)C(=NOC)c1ccccc1COc1cc(C)ccc1C,13.2 min
22,Cc1ccc(C(=O)c2cc(O)c(O)c([N+](=O)[O-])c2)cc1,11.1 min
